Results published in PubChem BioAssay (NCI).
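Grown in 96-well plates, cells were treated for 48 hours with each compound at five concentrations. Insufficient inhibition: endpoint recorded as highest concentration tested. TGI denotes the concentration required for complete inhibition of growth.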

How the values were obtained:
Test in all cases: DTP human tumour cell line panel, 48 h
[1] = tested on: A498 renal
[2] = tested on: MDA-MB-231 breast
[3] = tested on: TK-10 renal
[4] = tested on: COLO 205 colon
[5] = tested on: OVCAR-4 ovarian
[6] = tested on: MDA-MB-435
[7] = tested on: K-562 leukemia
[8] = tested on: MOLT-4 leukemia
[9] = tested on: MALME-3M melanoma
[10] = tested on: NCI/ADR-RES ovarian
[11] = tested on: A549 NSCLC
[12] = tested on: 786-0 renal
[13] = tested on: SF-539 CNS
[14] = tested on: HOP-92 NSCLC
[15] = tested on: HL-60(TB) leukemia
[16] = tested on: HCT-15 colon
[17] = tested on: IGROV1 ovarian
[18] = tested on: HOP-62 NSCLC
[19] = tested on: UACC-257 melanoma
[20] = tested on: SN12C renal
[21] = tested on: EKVX NSCLC
[22] = tested on: OVCAR-5 ovarian
[23] = tested on: SK-MEL-2 melanoma
[24] = tested on: ACHN renal
[25] = tested on: OVCAR-8 ovarian
[26] = tested on: HS 578T breast
[27] = tested on: T-47D breast
[28] = tested on: DU-145 prostate
[29] = tested on: NCI-H226 lung
[30] = tested on: PC-3 prostate
[31] = tested on: HT29 colon
[32] = tested on: HCT-116 colon
[33] = tested on: NCI-H460 lung
[34] = tested on: UO-31 renal
[35] = tested on: CCRF-CEM leukemia
[36] = tested on: SK-MEL-5 melanoma
[37] = tested on: SNB-19 CNS
[38] = tested on: U251 CNS
[39] = tested on: SW-620 colon
[40] = tested on: CAKI-1 renal
[41] = tested on: KM12 colon
[42] = tested on: M14 melanoma
[43] = tested on: NCI-H23 lung
[44] = tested on: SK-OV-3 ovarian
[45] = tested on: MCF7 breast
[46] = tested on: OVCAR-3 ovarian
[47] = tested on: HCC-2998 colon
[48] = tested on: RXF 393 renal
[49] = tested on: BT-549 breast
[50] = tested on: UACC-62 melanoma
[51] = tested on: SK-MEL-28 melanoma
[52] = tested on: MDA-N
[53] = tested on: RPMI-8226 leukemia
[54] = tested on: LOX IMVI melanoma
[55] = tested on: SF-268 CNS

Compound: COc1cc2c(cc1OC)C(=O)/C(=C/c1cc(Cl)cc(Cl)c1)C2
- TGI [1]: > 100 µM
- TGI [2]: > 100 µM
- TGI [3]: > 100 µM
- TGI [4]: > 100 µM
- TGI [5]: 98.1 µM
- TGI [6]: > 19.6 µM
- TGI [7]: > 44.4 µM
- TGI [8]: > 100 µM
- TGI [9]: > 59.7 µM
- TGI [10]: 10.4 µM
- TGI [11]: > 100 µM
- TGI [12]: > 89.7 µM
- TGI [13]: 9.94 µM
- TGI [14]: 99.6 µM
- TGI [15]: > 100 µM
- TGI [16]: > 100 µM
- TGI [17]: > 100 µM
- TGI [18]: > 100 µM
- TGI [19]: > 100 µM
- TGI [20]: > 100 µM
- TGI [21]: > 100 µM
- TGI [22]: > 100 µM
- TGI [23]: > 95 µM
- TGI [24]: > 100 µM
- TGI [25]: > 100 µM
- TGI [26]: > 100 µM
- TGI [27]: > 100 µM
- TGI [28]: > 100 µM
- TGI [29]: > 100 µM
- TGI [30]: > 100 µM
- TGI [31]: > 100 µM
- TGI [32]: > 100 µM
- TGI [33]: > 100 µM
- TGI [34]: > 100 µM
- TGI [35]: > 100 µM
- TGI [36]: > 24.1 µM
- TGI [37]: > 100 µM
- TGI [38]: > 100 µM
- TGI [39]: > 100 µM
- TGI [40]: > 100 µM
- TGI [41]: > 21.4 µM
- TGI [42]: > 100 µM
- TGI [43]: > 100 µM
- TGI [44]: > 54.6 µM
- TGI [45]: > 100 µM
- TGI [46]: > 100 µM
- TGI [47]: > 100 µM
- TGI [48]: > 100 µM
- TGI [49]: > 100 µM
- TGI [50]: > 95.8 µM
- TGI [51]: > 100 µM
- TGI [52]: 4.86 µM
- TGI [53]: > 100 µM
- TGI [54]: > 100 µM
- TGI [55]: > 100 µM
